Assay results taken from patent US9040530B2, “1,2,4-triazine-6-carboxamide kinase inhibitors” (Portola Pharmaceuticals, Inc., priority 2012, dated 2015).

biological target: T1, full length active recombinant SYK enzyme (Homo sapiens, UniProt P43405); assay: Inhibition of Syk tyrosine phosphorylation activity (LANCE TR-FRET kinase assay); assay type: biochemical; details: 1 nM active SYK enzyme, 550 nM SYK-substrate, 100 μM ATP, 1 hour at room temperature
T1 construct: full length active recombinant SYK enzyme (Millipore, Calif.); purchased Millipore

| SMILES | IC50 |
| --- | --- |
| N#Cc1ccc(Nc2nc(N[C@@H]3CCCC[C@@H]3N)nnc2C(N)=O)cc1 [Example 75, 3-(((1R,2S)-2-aminocyclohexyl)amino)-5-((4-cyanophenyl)amino)-1,2,4-triazine-6-carboxamide] | 10 to 100 nM |
| COc1cc(Nc2nc(N[C@@H]3CCCC(F)(F)[C@@H]3N)nnc2C(N)=O)ccc1C [Example 229, 3-(((1R,2R)-2-amino-3,3-difluorocyclohexyl)amino)-5-((3-methoxy-4-methylphenyl)amino)-1,2,4-triazine-6-carboxamide] | 10 to 100 nM |
| Cn1cc(C#N)c2ccc(Nc3nc(N[C@@H]4CCOC[C@@H]4N)nnc3C(N)=O)cc21 [Example 172, 3-(((3R,4R)-3-aminotetrahydro-2H-pyran-4-yl)amino)-5-((3-cyano-1-methyl-1H-indol-6-yl)amino)-1,2,4-triazine-6-carboxamide] | 1 to 10 nM |
| Cc1cc(Nc2nc(N[C@@H]3CCOC[C@@H]3N)nnc2C(N)=O)ccc1Cl [Example 224, 3-(((3R,4R)-3-aminotetrahydro-2H-pyran-4-yl)amino)-5-((4-chloro-3-methylphenyl)amino)-1,2,4-triazine-6-carboxamide] | 1 to 10 nM |
| NC(=O)c1nnc(N[C@@H]2CCCC(F)(F)[C@@H]2N)nc1Nc1ccc2ncccc2c1 [Example 49, 3-(((1R,2R)-2-amino-3,3-difluorocyclohexyl)amino)-5-(quinolin-6-ylamino)-1,2,4-triazine-6-carboxamide] | 10 to 100 nM |
| Cn1ccc2ccc(Nc3nc(N[C@@H]4CCCC(F)(F)[C@@H]4N)nnc3C(N)=O)cc21 [Example 166, 3-(((1R,2R)-2-amino-3,3-difluorocyclohexyl)amino)-5-((1-methyl-1H-indol-6-yl)amino)-1,2,4-triazine-6-carboxamide] | 10 to 100 nM |

The remaining lines, values ahead:

| IC50 | SMILES |
| --- | --- |
| 100 to 1000 nM | Cn1ccc2c(Nc3nc(N[C@@H](C(N)=O)C(C)(C)C)nnc3C(N)=O)cccc21 [Example 93, (R)-3-((1-amino-3,3-dimethyl-1-oxobutan-2-yl)amino)-5-((1-methyl-1H-indol-4-yl)amino)-1,2,4-triazine-6-carboxamide] |
| 1 to 10 nM | Cc1ccc(Nc2nc(N[C@@H]3CCCC[C@@H]3N)nnc2C(N)=O)cc1 [Example 8, 3-(((1R,2S)-2-aminocyclohexyl)amino)-5-(p-tolylamino)-1,2,4-triazine-6-carboxamide] |
| 10 to 100 nM | Cc1ccc(Nc2nc(N[C@H](Cc3ccc(F)cc3)C(N)=O)nnc2C(N)=O)cc1 [Example 189, (R)-3-(1-amino-3-(4-fluorophenyl)-1-oxopropan-2-ylamino)-5-(p-tolylamino)-1,2,4-triazine-6-carboxamide] |
| 10 to 100 nM | CC(C)[C@@H](Nc1nnc(C(N)=O)c(Nc2ccc3ncccc3c2)n1)C(N)=O [Example 52, (R)-3-((1-amino-3-methyl-1-oxobutan-2-yl)amino)-5-(quinolin-6-ylamino)-1,2,4-triazine-6-carboxamide] |
| 100 to 1000 nM | COC[C@@H](Nc1nnc(C(N)=O)c(Nc2ccc(C)cc2)n1)C(N)=O [Example 187, (R)-3-(1-amino-3-methoxy-1-oxopropan-2-ylamino)-5-(p-tolylamino)-1,2,4-triazine-6-carboxamide] |
| 10 to 100 nM | CC[C@@H](Nc1nnc(C(N)=O)c(Nc2ccc(C(F)(F)F)c(Cl)c2)n1)C(N)=O [Example 241, (R)-3-((1-amino-1-oxobutan-2-yl)amino)-5-((3-chloro-4-(trifluoromethyl)phenyl)amino)-1,2,4-triazine-6-carboxamide] |
| 1 to 10 nM | NC(=O)c1nnc(N[C@@H]2CCCC[C@@H]2N)nc1Nc1ccc(-c2ncccn2)cc1 [Example 3, 3-(((1R,2S)-2-aminocyclohexyl)amino)-5-((4-(pyrimidin-2-yl)phenyl)amino)-1,2,4-triazine-6-carboxamide] |
